Experimental data from patent publication US20230203043A1, “NOVEL IMIDAZOPYRAZINE DERIVATIVES” (Hoffmann-La Roche Inc., priority 2020, published 2023).
Where a name gives a salt, the structure may show the parent alone. Read-outs that look alike come from different tables or passages of the source.

Tested on: Acinetobacter baumannii ATCC17961
Assay: Antimicrobial susceptibility testing: 90% growth inhibitory concentration (IC90) determination in Iso-Sensitest broth, OD600 growth
Assay type: cell-based
Settings: Acinetobacter baumannii, ATCC17961, 16 h
Outline: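 Serial twofold dilution, 10 points, e.g. 50–0.097 μM final; ~5×10^(5) CFU/ml; 35±2° C, 16 h; kinetic OD600 every 20 min; IC90 from log-phase inhibition.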

[1] = read-out: A. baumannii ATCC 17961 IC90 (uM), strain ATCC 17961, OD600 growth over 16 h
[2] = strain ATCC 17961, OD600 growth over 16 h, read-out: A. baumannii ATCC 17961 IC90

Compound	IC90 [1] [µM]	IC90 [2] [µM]
CCc1cc(Nc2nccn3c(-c4cn(CC(F)F)nc4C(F)(F)F)cnc23)ccc1C(=O)NC1CCCNC1 (centres unmarked) [Example 563, 4-((3-(1-(2,2-difluoroethyl)-3-(trifluoromethyl)-1H-pyrazol-4-yl)imidazo[1,2-a]pyrazin-8-yl)amino)-2-ethyl-N-(piperidin-3-yl)benzamide formate]	0.575	
CCc1cc(Nc2nccn3c(-c4cn(CC(F)F)nc4C(F)(F)F)cnc23)ccc1C(=O)N1CC2(CCN2)C1 [Example 564, (4-((3-(1-(2,2-difluoroethyl)-3-(trifluoromethyl)-1H-pyrazol-4-yl)imidazo[1,2-a]pyrazin-8-yl)amino)-2-ethylphenyl)(1,6-diazaspiro[3.3]heptan-6-yl)methanone formate]	0.58	
CCc1cc(Nc2nccn3c(-c4cn(CC(F)F)nc4C(F)(F)F)cnc23)ccc1C(=O)NC1CNC1 [Example 565, N-(azetidin-3-yl)-4-((3-(1-(2,2-difluoroethyl)-3-(trifluoromethyl)-1H-pyrazol-4-yl)imidazo[1,2-a]pyrazin-8-yl)amino)-2-ethylbenzamide formate]	0.188	
CCc1cc(Nc2nccn3c(-c4cn(CC#N)nc4C(F)(F)F)cnc23)ccc1C(=O)NCCNC(=O)CCN [Example 566, N-(2-(3-aminopropanamido)ethyl)-4-((3-(1-(cyanomethyl)-3-(trifluoromethyl)-1H-pyrazol-4-yl)imidazo[1,2-a]pyrazin-8-yl)amino)-2-ethylbenzamide formate]	0.477	
CCc1cc(Nc2nccn3c(-c4c[nH]nc4C(F)(F)F)cnc23)ccc1C(=O)NCCNC(=O)[C@H]1C[C@H](N)C1 [Example 567, N-(2-((1r,3r)-3-aminocyclobutane-1-carboxamido)ethyl)-2-ethyl-4-((3-(3-(trifluoromethyl)-1H-pyrazol-4-yl)imidazo[1,2-a]pyrazin-8-yl)amino) benzamide formate]		0.476
CCc1cc(Nc2nccn3c(-c4c[nH]nc4C(F)(F)F)cnc23)ccc1C(=O)NCCNC(=O)N1CCC(N)CC1 [Example 568, 4-amino-N-(2-(2-ethyl-4-((3-(3-(trifluoromethyl)-1H-pyrazol-4-yl)imidazo[1,2-a]pyrazin-8-yl)amino)benzamido)ethyl) piperidine-1-carboxamide formate]		0.46
CCc1cc(Nc2nccn3c(-c4c[nH]nc4C(F)(F)F)cnc23)ccc1C(=O)NCCNC(=O)NCCCN [Example 569, N-(2-(3-(3-aminopropyl)ureido)ethyl)-2-ethyl-4-((3-(3-(trifluoromethyl)-1H-pyrazol-4-yl)imidazo[1,2-a]pyrazin-8-yl)amino)benzamide formate]	0.364	
O=C(CC1CCNCC1)N1CCN(C(=O)c2ccc(Nc3nccn4c(-c5c[nH]nc5C(F)(F)F)cnc34)cc2Cl)CC1 [Example 570, 1-(4-(2-chloro-4-((3-(3-(trifluoromethyl)-1H-pyrazol-4-yl)imidazo[1,2-a]pyrazin-8-yl)amino)benzoyl)piperazin-1-yl)-2-(piperidin-4-yl) ethan-1-one formate]	0.256	
NCCN1CCN(C(=O)c2ccc(Nc3nccn4c(-c5c[nH]nc5C(F)(F)F)cnc34)cc2Cl)CC1 [Example 571, (4-(2-aminoethyl)piperazin-1-yl)(2-chloro-4-((3-(3-(trifluoromethyl)-1H-pyrazol-4-yl)imidazo[1,2-a]pyrazin-8-yl)amino)phenyl) methanone formate]	0.192	
N#CCn1cc(-c2cnc3c(Nc4ccc(C(=O)N5CCN(C(=O)CC6CCNCC6)CC5)c(Cl)c4)nccn23)c(C(F)(F)F)n1 [Example 572, 2-(4-(8-((3-chloro-4-(4-(2-(piperidin-4-yl)acetyl)piperazine-1-carbonyl)phenyl)amino)imidazo[1,2-a]pyrazin-3-yl)-3-(trifluoromethyl)-1H-pyrazol-1-yl)acetonitrile formate]	0.291	
N#CCn1cc(-c2cnc3c(Nc4ccc(C(=O)N5CCN(C(=O)[C@@H]6CC[C@@H](N)C6)CC5)c(Cl)c4)nccn23)c(C(F)(F)F)n1 [Example 573, 2-(4-(8-((4-(4-((1R,3R)-3-aminocyclopentane-1-carbonyl)piperazine-1-carbonyl)-3-chlorophenyl)amino)imidazo[1,2-a]pyrazin-3-yl)-3-(trifluoromethyl)-1H-pyrazol-1-yl)acetonitrile formate]	0.169	
N[C@@H]1CC[C@@H](C(=O)N2CCN(C(=O)c3ccc(Nc4nccn5c(-c6cn(CC(F)F)nc6C(F)(F)F)cnc45)cc3Cl)CC2)C1 [Example 574, (4-((1R,3R)-3-aminocyclopentane-1-carbonyl)piperazin-1-yl)(2-chloro-4-((3-(1-(2,2-difluoroethyl)-3-(trifluoromethyl)-1H-pyrazol-4-yl)imidazo[1,2-a]pyrazin-8-yl)amino)phenyl)methanone formate]	0.242	
N[C@H]1CC[C@H](C(=O)N2CCN(C(=O)c3ccc(Nc4nccn5c(-c6c[nH]nc6C(F)(F)F)cnc45)cc3Cl)CC2)C1 [Example 575, (4-((1S,3S)-3-aminocyclopentane-1-carbonyl)piperazin-1-yl)(2-chloro-4-((3-(3-(trifluoromethyl)-1H-pyrazol-4-yl)imidazo[1,2-a]pyrazin-8-yl)amino)phenyl)methanone formate]	0.175	
CCc1cc(Nc2nccn3c(-c4c[nH]nc4C(F)(F)F)cnc23)ccc1C(=O)NCCNC(=O)N1CC[C@H](N)C1 [Example 576, (S)-3-amino-N-(2-(2-ethyl-4-((3-(3-(trifluoromethyl)-1H-pyrazol-4-yl)imidazo[1,2-a]pyrazin-8-yl)amino)benzamido)ethyl) pyrrolidine-1-carboxamide formate]		0.9
CCc1cc(Nc2nccn3c(-c4cn(CC#N)nc4C(F)(F)F)cnc23)ccc1C(=O)NCCNC(=O)N1CC[C@H](N)C1 [Example 577, (S)-3-amino-N-(2-(4-((3-(1-(cyanomethyl)-3-(trifluoromethyl)-1H-pyrazol-4-yl)imidazo[1,2-a]pyrazin-8-yl)amino)-2-ethylbenzamido)ethyl) pyrrolidine-1-carboxamide formate]		0.395
O=C(CC1CCNCC1)N1CCN(C(=O)c2ccc(Nc3nccn4c(-c5cn(CC(F)F)nc5C(F)(F)F)cnc34)cc2Cl)CC1 [Example 578, 1-(4-(2-chloro-4-((3-(1-(2,2-difluoroethyl)-3-(trifluoromethyl)-1H-pyrazol-4-yl)imidazo[1,2-a]pyrazin-8-yl)amino)benzoyl)piperazin-1-yl)-2-(piperidin-4-yl) ethan-1-one formate]	0.394	
N#CCn1cc(-c2cnc3c(Nc4ccc(C(=O)N5CCN(C(=O)NCC6(O)CNC6)CC5)c(Cl)c4)nccn23)c(C(F)(F)F)n1 [Example 579, 4-(2-chloro-4-((3-(1-(cyanomethyl)-3-(trifluoromethyl)-1H-pyrazol-4-yl)imidazo[1,2-a]pyrazin-8-yl)amino)benzoyl)-N-((3-hydroxyazetidin-3-yl)methyl)piperazine-1-carboxamide formate]	0.538	
O=C(NCC1(O)CNC1)N1CCN(C(=O)c2ccc(Nc3nccn4c(-c5cn(CC(F)F)nc5C(F)(F)F)cnc34)cc2Cl)CC1 [Example 580, 4-(2-chloro-4-((3-(1-(2,2-difluoroethyl)-3-(trifluoromethyl)-1H-pyrazol-4-yl)imidazo[1,2-a]pyrazin-8-yl)amino)benzoyl)-N-((3-hydroxyazetidin-3-yl)methyl)piperazine-1-carboxamide formate]	0.322	
O=C(NC1CNC1)N1CCN(C(=O)c2ccc(Nc3nccn4c(-c5cn(CC(F)F)nc5C(F)(F)F)cnc34)cc2Cl)CC1 [Example 581, N-(azetidin-3-yl)-4-(2-chloro-4-((3-(1-(2,2-difluoroethyl)-3-(trifluoromethyl)-1H-pyrazol-4-yl)imidazo[1,2-a]pyrazin-8-yl)amino)benzoyl) piperazine-1-carboxamide formate]		0.354
N#CCn1cc(-c2cnc3c(Nc4ccc(C(=O)N5CCN(C(=O)[C@H]6CC[C@H](N)C6)CC5)c(Cl)c4)nccn23)c(C(F)(F)F)n1 [Example 582, 2-(4-(8-((4-(4-((1S,3S)-3-aminocyclopentane-1-carbonyl)piperazine-1-carbonyl)-3-chlorophenyl)amino)imidazo[1,2-a]pyrazin-3-yl)-3-(trifluoromethyl)-1H-pyrazol-1-yl) acetonitrile formate]	0.232	
N[C@H]1CC[C@H](C(=O)N2CCN(C(=O)c3ccc(Nc4nccn5c(-c6cn(CC(F)F)nc6C(F)(F)F)cnc45)cc3Cl)CC2)C1 [Example 583, (4-((1S,3S)-3-aminocyclopentane-1-carbonyl)piperazin-1-yl) (2-chloro-4-((3-(1-(2,2-difluoroethyl)-3-(trifluoromethyl)-1H-pyrazol-4-yl)imidazo[1,2-a]pyrazin-8-yl)amino)phenyl) methanone formate]	0.347	
N#CCn1cc(-c2cnc3c(Nc4ccc(C(=O)N5CCN(C(=O)N[C@H]6C[C@@H](N)C6)CC5)c(Cl)c4)nccn23)c(C(F)(F)F)n1 [Example 584, N-((1s,3s)-3-aminocyclobutyl)-4-(2-chloro-4-((3-(1-(cyanomethyl)-3-(trifluoromethyl)-1H-pyrazol-4-yl)imidazo[1,2-a]pyrazin-8-yl)amino)benzoyl) piperazine-1-carboxamide formate]		0.257
N[C@H]1C[C@@H](NC(=O)N2CCN(C(=O)c3ccc(Nc4nccn5c(-c6cn(CC(F)F)nc6C(F)(F)F)cnc45)cc3Cl)CC2)C1 [Example 585, N-((1s,3s)-3-aminocyclobutyl)-4-(2-chloro-4-((3-(1-(2,2-difluoroethyl)-3-(trifluoromethyl)-1H-pyrazol-4-yl)imidazo[1,2-a]pyrazin-8-yl)amino)benzoyl) piperazine-1-carboxamide formate]		0.325
